Assay results published in ChEMBL document CHEMBL4014340, “Identification of a Potent, Selective, and Efficacious Phosphatidylinositol 3-Kinase δ (PI3Kδ) Inhibitor for the Treatment of Immunological Disorders” (J Med Chem, 2017).

How the values were obtained:
[1] = Metabolic stability in human liver microsomes assessed as parent compound remaining at 0.5 uM preincubated for 6 mins followed by NADPH addition measured after 10 mins by LC-MS/MS analysis; type: ADME, microsome; settings: read-out: Stability
[2] = Metabolic stability in rat liver microsomes assessed as parent compound remaining at 0.5 uM preincubated for 6 mins followed by NADPH addition measured after 10 mins by LC-MS/MS analysis; type: ADME, microsome; settings: read-out: Stability
[3] = Metabolic stability in mouse liver microsomes assessed as parent compound remaining at 0.5 uM preincubated for 6 mins followed by NADPH addition measured after 10 mins by LC-MS/MS analysis; type: ADME, microsome; settings: read-out: Stability
[4] = Half life in human liver microsomes aat 0.5 uM preincubated for 6 mins followed by NADPH addition measured after 10 mins by LC-MS/MS analysis; type: ADME, microsome
[5] = Half life in rat liver microsomes aat 0.5 uM preincubated for 6 mins followed by NADPH addition measured after 10 mins by LC-MS/MS analysis; type: ADME, microsome
[6] = Half life in mouse liver microsomes aat 0.5 uM preincubated for 6 mins followed by NADPH addition measured after 10 mins by LC-MS/MS analysis; type: ADME, microsome
[7] = Cmax in Balb/c mouse at 10 mg/kg, po; type: ADME, organism-based; parameters: dose 10 mg/kg, route oral; settings: in vivo
[8] = AUC (0 to 24 hrs) in Balb/c mouse at 10 mg/kg, po; type: ADME, organism-based; parameters: time < 24 hr, dose 10 mg/kg, route oral; settings: in vivo
Oryctolagus cuniculus = assay: Effect on QTc time interval in New Zealand White rabbit administered as 10 mins iv infusion measured for 2 mins by ECG analysis; type: ADME, organism-based; settings: in vivo

remaining at 10 min, 0.5 µM [1] [%] | remaining at 10 min, 0.5 µM [2] [%] | remaining at 10 min, 0.5 µM [3] [%] | half-life at 0.5 µM [4] [min] | half-life at 0.5 µM [5] [min] | half-life at 0.5 µM [6] [min] | Cmax [7] [nM] | AUC(0-t) at 24 h [8] [µM·h] | Compound | Time (Oryctolagus cuniculus) [ms]
82 | 59 | 22 |  |  |  |  |  | CC(=O)N1C[C@@H](C)N(c2cc(-c3cc(Cl)c4c(N)ncnn34)ccc2C#N)C(=O)C1(C)C | 
95 | 100 | 100 |  |  |  |  |  | COc1ccc(-c2cc(C(F)(F)F)c3c(N)ncnn23)cc1N1CCN(C(C)=O)C(C)(C)C1=O | 
89 | 91 | 100 |  |  |  |  |  | CC(=O)N1C[C@H](C)N(c2cc(-c3cc(C(F)(F)F)c4c(N)ncnn34)ccc2C#N)C(=O)C1(C)C | 
96 | 96 | 97 |  |  |  |  |  | CC(=O)N1CCN(c2cc(-c3cc(C(F)(F)F)c4c(N)ncnn34)ccc2S(C)(=O)=O)C(=O)C1(C)C | 
99 | 94 | 85 |  |  |  |  |  | CC(=O)N1C[C@H](C)N(c2cc(-c3cc(Cl)c4c(N)ncnn34)ccc2C#N)C(=O)C1(C)C | 
90 | 43 | 23 |  |  |  |  |  | CC(=O)N1C[C@@H](C)N(c2cc(-c3cc(C(F)(F)F)c4c(N)ncnn34)ccc2C#N)C(=O)C1(C)C | 
100 | 100 | 100 |  |  |  |  |  | CC(=O)N1CCN(c2cc(-c3cc(C(F)(F)F)c4c(N)ncnn34)ccc2C(C)O)C(=O)C1(C)C (racemic) | 

The remaining lines, values behind:

Compound | remaining at 10 min, 0.5 µM [1] [%] | remaining at 10 min, 0.5 µM [2] [%] | remaining at 10 min, 0.5 µM [3] [%] | half-life at 0.5 µM [4] [min] | half-life at 0.5 µM [5] [min] | half-life at 0.5 µM [6] [min] | Cmax [7] [nM] | AUC(0-t) at 24 h [8] [µM·h] | Time (Oryctolagus cuniculus) [ms]
CC(=O)N1CCN(c2cc(-c3cc(C(F)(F)F)c4c(N)ncnn34)ccc2C(F)(F)F)C(=O)C1(C)C | 70 | 77 | 99 |  |  |  |  |  | 
CC(=O)N1CCN(c2cccc(-c3cc(Cl)c4c(N)ncnn34)c2C)C(=O)C1(C)C | 84 | 19 | 1 |  |  |  |  |  | 
CC(=O)N1CCN(c2cc(C)cc(-c3cc(Cl)c4c(N)ncnn34)c2)C(=O)C1(C)C | 92 | 100 | 45 |  |  |  |  |  | 
CC(=O)N1CCN(c2cccc(-c3cc(-c4ccnn4C4CCOCC4)c4c(N)ncnn34)c2)C(=O)C1(C)C | 77 | 81 | 53 |  |  |  |  |  | 
CC(=O)N1CCN(c2cccc(-c3cc(-c4ccnn4CC(F)(F)F)c4c(N)ncnn34)c2)C(=O)C1(C)C | 80 | 70 | 62 | 57 | 31 | 26 | 1800 | 4.1 | > 10
